Laboratory results reported in the supplement of paper PMC10307832.

Key:
Test in all cases: relative viability (nuclei count vs DMSO), 5 days (fraction); higher = more cells survive
MK-2206 + Foretinib = compound: NC1(c2ccc(-c3nc4ccn5c(=O)[nH]nc5c4cc3-c3ccccc3)cc2)CCC1 [MK-2206] + COc1cc2c(Oc3ccc(NC(=O)C4(C(=O)Nc5ccc(F)cc5)CC4)cc3F)ccnc2cc1OCCCN1CCOCC1 [Foretinib] (partner 0.25 µM)
Summary of the method: (§1)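 After 5 days of treatment, lung cancer cells in 1536-well plates were fixed and stained in a single step (final 0.05% Triton X-100, 1% formaldehyde, 1 ug/ml Hoechst) and their nuclei counted on 4× images. Treatment had been applied by pin tool the day after seeding as one drug alone or as a fixed anchor-drug dose with five library-drug doses (not always all listed) in √10 steps. Relative viability is the nuclei count of treated wells divided by that of vehicle wells, and values are medians of duplicate plates.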

Pictilisib + Dasatinib = compound: CS(=O)(=O)N1CCN(Cc2cc3nc(-c4cccc5[nH]ncc45)nc(N4CCOCC4)c3s2)CC1 [Pictilisib] + Cc1nc(Nc2ncc(C(=O)Nc3c(C)cccc3Cl)s2)cc(N2CCN(CCO)CC2)n1 [Dasatinib] (partner 0.075 µM)
Summary of the method: as §1

MK-2206 + Vorinostat = compound: NC1(c2ccc(-c3nc4ccn5c(=O)[nH]nc5c4cc3-c3ccccc3)cc2)CCC1 [MK-2206] + O=C(CCCCCCC(=O)Nc1ccccc1)NO [Vorinostat] (partner 1 µM)
Summary of the method: as §1

MK-2206 + Tozasertib = compound: NC1(c2ccc(-c3nc4ccn5c(=O)[nH]nc5c4cc3-c3ccccc3)cc2)CCC1 [MK-2206] + Cc1cc(Nc2cc(N3CCN(C)CC3)nc(Sc3ccc(NC(=O)C4CC4)cc3)n2)n[nH]1 [Tozasertib] (partner 0.1 µM)
Summary of the method: as §1

Pictilisib + Alpelisib = compound: CS(=O)(=O)N1CCN(Cc2cc3nc(-c4cccc5[nH]ncc45)nc(N4CCOCC4)c3s2)CC1 [Pictilisib] + Cc1nc(NC(=O)N2CCC[C@H]2C(N)=O)sc1-c1ccnc(C(C)(C)C(F)(F)F)c1 [Alpelisib] (partner 2 µM)
Summary of the method: as §1

Cell Line | relative viability (MK-2206 + Foretinib; first compound 0.01 µM) | relative viability (MK-2206 + Foretinib; first compound 0.03162 µM) | relative viability (MK-2206 + Foretinib; first compound 0.3162 µM) | relative viability (MK-2206 + Foretinib; first compound 1 µM) | relative viability (Pictilisib + Dasatinib; first compound 0.02 µM) | relative viability (Pictilisib + Dasatinib; first compound 0.06325 µM) | relative viability (Pictilisib + Dasatinib; first compound 0.6325 µM) | relative viability (Pictilisib + Dasatinib; first compound 2 µM) | relative viability (MK-2206 + Vorinostat; first compound 0.01 µM) | relative viability (MK-2206 + Vorinostat; first compound 0.03162 µM) | relative viability (MK-2206 + Vorinostat; first compound 0.3162 µM) | relative viability (MK-2206 + Vorinostat; first compound 1 µM) | relative viability (MK-2206 + Tozasertib; first compound 0.01 µM) | relative viability (MK-2206 + Tozasertib; first compound 0.03162 µM) | relative viability (MK-2206 + Tozasertib; first compound 0.3162 µM) | relative viability (MK-2206 + Tozasertib; first compound 1 µM) | relative viability (Pictilisib + Alpelisib; first compound 0.02 µM) | relative viability (Pictilisib + Alpelisib; first compound 0.06325 µM) | relative viability (Pictilisib + Alpelisib; first compound 0.6325 µM) | relative viability (Pictilisib + Alpelisib; first compound 2 µM)
HOP-62 | 1.09 | 1.16 | 1.15 | 1.06 | 0.627 | 0.573 | 0.43 | 0.26 | 0.491 | 0.632 | 0.492 | 0.656 | 0.381 | 0.39 | 0.391 | 0.322 | 1.09 | 0.854 | 0.788 | 0.935
LC-2-ad | 0.864 | 0.952 | 0.846 | 0.889 | 0.739 | 0.516 | 0.248 | 0.177 | 0.663 | 0.72 | 0.753 | 0.665 | 0.42 | 0.484 | 0.525 | 0.44 | 0.918 | 0.828 | 0.634 | 0.484
SW 900 | 0.864 | 0.936 | 0.882 | 0.769 | 0.577 | 0.547 | 0.264 | 0.255 | 0.527 |  | 0.554 | 0.299 | 0.561 | 0.531 | 0.569 | 0.698 |  |  |  | 
NCI-H322M | 0.871 | 1.11 | 1.1 | 1.01 | 0.226 | 0.253 | 0.271 | 0.243 | 0.844 | 0.936 | 0.944 | 0.977 | 0.455 | 0.552 | 0.449 | 0.455 | 0.845 | 0.8 | 0.872 | 0.684
SK-LU-1 | 0.844 | 0.776 | 0.814 | 0.791 | 0.159 | 0.168 | 0.103 | 0.109 | 0.818 | 0.778 | 0.823 | 0.735 | 0.212 | 0.334 | 0.376 | 0.291 | 1.16 | 1.29 | 0.895 | 0.713
NCI-H1734 | 1 | 0.994 | 0.682 | 0.64 | 0.451 | 0.424 | 0.281 | 0.182 | 0.877 | 0.822 | 0.629 | 0.67 | 0.28 | 0.244 | 0.261 | 0.252 | 0.709 | 0.588 | 0.546 | 0.406
HCC-44 |  |  |  |  |  |  |  |  | 1.07 | 1.1 | 1.12 | 1.07 | 0.993 | 1.1 | 1.03 | 0.98 | 0.893 | 0.79 | 0.674 | 0.412
NCI-H1703 | 0.368 | 0.309 | 0.377 | 0.333 |  |  |  |  |  |  |  |  |  |  |  |  | 0.435 | 0.314 | 0.227 | 0.195
NCI-H2170 | 1.06 | 1.04 | 1.02 | 1.02 | 0.544 | 0.754 | 0.522 | 0.343 | 0.829 | 0.847 | 0.769 | 0.699 | 0.789 | 0.717 | 0.659 | 0.763 | 0.834 | 0.879 | 0.813 | 0.583
